Among the data in patent publication US6420375B1, “Fused ring compounds, process for producing the same and use thereof” (Takeda Chemical Industries, Ltd., priority 1997, dated 2002) are IC50 values, retold here.

The target of the assay is T1, rat steroid C17-20-lyase (Rattus norvegicus, UniProt P11715).
T1 construct: testicular microsomes were prepared by a series of centrifugation; from tissue; host or cells: testicular microsomes from 13-week old male SD rats
T1 sequence (P11715 1-507): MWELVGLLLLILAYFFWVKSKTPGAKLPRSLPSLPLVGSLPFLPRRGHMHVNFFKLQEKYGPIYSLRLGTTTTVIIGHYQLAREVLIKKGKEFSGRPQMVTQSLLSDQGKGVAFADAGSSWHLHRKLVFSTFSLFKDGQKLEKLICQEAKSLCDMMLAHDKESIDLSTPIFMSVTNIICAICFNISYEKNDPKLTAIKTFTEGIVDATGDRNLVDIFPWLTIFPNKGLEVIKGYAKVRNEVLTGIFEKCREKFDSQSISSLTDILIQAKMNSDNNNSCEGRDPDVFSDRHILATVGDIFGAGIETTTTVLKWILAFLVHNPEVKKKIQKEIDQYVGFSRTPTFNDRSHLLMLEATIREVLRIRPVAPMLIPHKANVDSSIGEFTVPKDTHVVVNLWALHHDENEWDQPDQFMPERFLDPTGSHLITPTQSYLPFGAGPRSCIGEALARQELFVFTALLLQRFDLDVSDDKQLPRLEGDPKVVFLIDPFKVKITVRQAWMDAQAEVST
The experiment in a line: Assay of inhibitory activity on rat steroid C17-20-lyase in vitro. Format: biochemical. The settings on record: testicular microsomes of male SD rats; 10 nM [1,2-3H]-17α-hydroxyprogesterone, NADPH; 7 min at 37° C.; concentration reducing products (testosterone and androstenedione) by 50%. As to the method: Assay of inhibitory activity on rat steroid C17-20-lyase in vitro
Inhibitory activity was determined according to the method described in The Prostate, vol.26, 140-150(1995) with some modifications.
Testes excised from 13-week old, male SD rats were homogenized, and testicular microsomes were prepared by a series of centrifugation. The microsome protein (7 μg/10 μl) was added to 10 μl of 100 mM phosphate buffer (pH 7.4) in which 10 nM (final concentration) [1,2-^3H]-17α-hydroxyprogesterone, NADPH, and test compounds were dissolved. The reaction mixture was incubated for 7 min at 37° C., terminated by addition of 40 μl of Ethyl acetate, and briefly centrifuged. The substrate and the products (testosterone and androstenedione) in the upper phase were separated by silica gel thin layer chromatography. Detection of the spots and measurement of the radioactivity were performed by a BAS 2000 Bioimage analyzer. The concentration of the test compounds necessary to reduce the concentration of the products by 50% (The concentration in the control group in which no test compound was added was taken as 100%) was calculated, and shown in Table 1.

By IC50 is commonly meant the midpoint of a concentration-inhibition curve.

Each structure is given as a SMILES string.

For the molecule `C(=C\c1ccc2ccccc2c1)/Cc1cccnc1`, the IC50 worked out at 100 nM.

Consider `C/C(=C\Cn1ccnc1)c1ccc2ccccc2c1`, for which inhibition was half-maximal at 13 nM (IC50). Take `C/C(=C\Cn1ccnc1)c1ccc2c(c1)CCCC2`: the IC50 came to 28 nM. As for `C/C(=C\c1ccc2ccccc2c1)Cn1ccnc1`, half-maximal inhibition (IC50) required 20 nM. Molecule `C(=C\c1ccc2ccccc2c1)/Cn1ccnc1` yielded an IC50 of 26 nM. Under `C(=C\c1ccc2c(c1)CCCC2)/c1ccncc1` stands 190 nM.
